Measurements taken from ChEMBL document CHEMBL4680360, “Novel Oxazine Monoacylglycerol Lipase (MAGL) Inhibitors” (ACS Med Chem Lett, 2021).

Molecular target: T1, Monoglyceride lipase (Homo sapiens, UniProt Q99685)
T1 sequence (Q99685 whole entry): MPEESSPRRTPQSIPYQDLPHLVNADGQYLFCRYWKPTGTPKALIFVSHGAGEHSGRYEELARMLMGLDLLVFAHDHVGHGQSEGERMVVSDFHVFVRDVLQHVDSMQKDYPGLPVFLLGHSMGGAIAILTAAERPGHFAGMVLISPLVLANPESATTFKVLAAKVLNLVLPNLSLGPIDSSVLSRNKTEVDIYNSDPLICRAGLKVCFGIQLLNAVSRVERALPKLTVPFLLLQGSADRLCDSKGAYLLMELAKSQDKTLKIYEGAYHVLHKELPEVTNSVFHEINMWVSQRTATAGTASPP
Experiment: Inhibition of MAGL (unknown origin) using 2-AG as substrate incubated for 15 mins followed by substrate addition and measured after 30 mins by mass spectrophotometry

IC50: 0.1 nM
Compound: Cc1ccc([C@@H](c2ccccc2)C2CCN(C(=O)N3CC[C@@H]4OCC(=O)N[C@@H]4C3)CC2)cc1
